{"source": "ChEMBL document CHEMBL1806349", "about": "“Improved performance by replacing iminodiacetic residues with glyceryl residues in symmetrically branched oligoglycerols” (Bioorg Med Chem Lett, 2011)", "key": {"[1]": {"experiment": "Solubility of the compound in water", "type": "physicochemical"}, "[2]": {"experiment": "AUC (0 to 24 hrs) in iv dosed Crl:CD(SD) rat", "type": "ADME, organism-based", "design": "time < 24 hr, route intravenous", "conditions": "plasma"}}, "data": [{"smiles": "O=C(CCC(=O)N(CC(=O)NC(CO)CO)CC(=O)NC(CO)CO)NCCCCCCCCNC(=O)c1ccccc1", "values": [{"measurement": "solubility", "setting": "[1]", "result": 21, "unit": "mM"}]}, {"smiles": "O=C(CCC(=O)NC(COC(CO)CO)COC(CO)CO)NCCCCCCCCNC(=O)c1ccccc1", "values": [{"measurement": "solubility", "setting": "[1]", "result": 350, "unit": "mM"}]}, {"smiles": "CCCCCCCCCCCCCCCCCC(=O)OCC(CO[P+]([O-])(O)OCCNC(=O)CCC(=O)N(CC(=O)NC(COC(COC(CO)CO)COC(CO)CO)COC(COC(CO)CO)COC(CO)CO)CC(=O)NC(COC(COC(CO)CO)COC(CO)CO)COC(COC(CO)CO)COC(CO)CO)OC(=O)CCCCCCCCCCCCCCCCC", "note": "(centres undefined)", "values": [{"measurement": "AUC(0-t) at 24 h", "setting": "[2]", "result": 95100, "unit": "ng·h/mL"}]}, {"smiles": "CCCCCCCCCCCCCCCCCC(=O)OCC(CO[P+]([O-])(O)OCCNC(=O)CCC(=O)N(CC(=O)N(CC(=O)NC(COC(CO)CO)COC(CO)CO)CC(=O)NC(COC(CO)CO)COC(CO)CO)CC(=O)N(CC(=O)NC(COC(CO)CO)COC(CO)CO)CC(=O)NC(COC(CO)CO)COC(CO)CO)OC(=O)CCCCCCCCCCCCCCCCC", "note": "(centres undefined)", "values": [{"measurement": "AUC(0-t) at 24 h", "setting": "[2]", "result": 53100, "unit": "ng·h/mL"}]}]}
